Positions count from the first letter of the chain named. pEC50: −log10 of the molar value.
Experiments:
ABCG2 [1] = target: T1, ABCG2 (Homo sapiens, UniProt Q9UNQ0); assay: biochemical
T1 construct: ABCG2 in insect cell membrane vesicles (total membranes)
T1 sequence (Q9UNQ0 1-655): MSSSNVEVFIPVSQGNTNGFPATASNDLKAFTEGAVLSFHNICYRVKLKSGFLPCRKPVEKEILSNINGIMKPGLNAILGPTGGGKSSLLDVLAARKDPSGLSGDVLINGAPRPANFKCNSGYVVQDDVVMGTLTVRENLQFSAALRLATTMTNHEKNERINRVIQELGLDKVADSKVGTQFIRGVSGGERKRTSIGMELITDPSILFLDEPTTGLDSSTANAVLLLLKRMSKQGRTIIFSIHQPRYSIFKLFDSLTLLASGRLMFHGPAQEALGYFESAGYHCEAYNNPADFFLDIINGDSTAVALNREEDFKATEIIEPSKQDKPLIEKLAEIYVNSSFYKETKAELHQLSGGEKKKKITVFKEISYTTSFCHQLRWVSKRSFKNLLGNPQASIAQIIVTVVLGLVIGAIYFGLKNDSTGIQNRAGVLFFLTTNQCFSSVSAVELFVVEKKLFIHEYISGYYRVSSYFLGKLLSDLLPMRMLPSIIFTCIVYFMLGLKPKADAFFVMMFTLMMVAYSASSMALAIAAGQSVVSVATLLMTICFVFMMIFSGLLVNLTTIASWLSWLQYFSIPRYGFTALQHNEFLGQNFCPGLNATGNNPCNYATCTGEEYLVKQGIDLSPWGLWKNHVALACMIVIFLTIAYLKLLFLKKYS

ABCG2 [2] = target: T2, ABCG2 (Homo sapiens, UniProt Q9UNQ0, R482T); assay: tritium-labeled mitoxantrone accumulation in transfected cells
T2 sequence (Q9UNQ0 1-655 R482T): T1 sequence (Q9UNQ0 1-655) with R482T

pEC50 (ABCG2 [1])	Structure (SMILES)	tritium-labeled mitoxantrone accumulation in transfected cells (ABCG2 [2])
6.85	Cc1cc(O)c(-c2ccc([C@@H](C)CN(C)C)cc2)c2c1[nH]c(=O)c1sccc12 [OTS964]	–
–	O=C1c2c(O)ccc(O)c2C(=O)c2c(NCCNCCO)ccc(NCCNCCO)c21 [mitoxantrone]	ABCG2-mediated efflux of mitoxantrone, which is an established substrate of ABCG2, in R482T-mutant-ABCG2-overexpressing cell line
